What all share (type): biochemical
For one assay, the target named is T1, SIK1 (Homo sapiens, UniProt P57059).
T1 construct: purchased Carna Biosciences 02-131
As to the kind of experiment: ADP-Glo kinase assay, SIK1. Summed up:
(§1)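 Luminescent ADP-formation read-out: enzyme–substrate mix + ATP, 120 min RT; ATP depletion 40 min RT; ADP→ATP conversion with luciferase/luciferin 30 min RT. Controls: 1% DMSO (negative), 10 μM staurosporine final (positive).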
For orientation: ADP-Glo turns the ADP formed in a reaction into a luminescent signal.

In another assay the target is T2, SIK2 (Homo sapiens, UniProt Q9H0K1).
T2 construct: purchased ThermoFisher Scientific PV4792
T2 sequence (Q9H0K1 whole entry): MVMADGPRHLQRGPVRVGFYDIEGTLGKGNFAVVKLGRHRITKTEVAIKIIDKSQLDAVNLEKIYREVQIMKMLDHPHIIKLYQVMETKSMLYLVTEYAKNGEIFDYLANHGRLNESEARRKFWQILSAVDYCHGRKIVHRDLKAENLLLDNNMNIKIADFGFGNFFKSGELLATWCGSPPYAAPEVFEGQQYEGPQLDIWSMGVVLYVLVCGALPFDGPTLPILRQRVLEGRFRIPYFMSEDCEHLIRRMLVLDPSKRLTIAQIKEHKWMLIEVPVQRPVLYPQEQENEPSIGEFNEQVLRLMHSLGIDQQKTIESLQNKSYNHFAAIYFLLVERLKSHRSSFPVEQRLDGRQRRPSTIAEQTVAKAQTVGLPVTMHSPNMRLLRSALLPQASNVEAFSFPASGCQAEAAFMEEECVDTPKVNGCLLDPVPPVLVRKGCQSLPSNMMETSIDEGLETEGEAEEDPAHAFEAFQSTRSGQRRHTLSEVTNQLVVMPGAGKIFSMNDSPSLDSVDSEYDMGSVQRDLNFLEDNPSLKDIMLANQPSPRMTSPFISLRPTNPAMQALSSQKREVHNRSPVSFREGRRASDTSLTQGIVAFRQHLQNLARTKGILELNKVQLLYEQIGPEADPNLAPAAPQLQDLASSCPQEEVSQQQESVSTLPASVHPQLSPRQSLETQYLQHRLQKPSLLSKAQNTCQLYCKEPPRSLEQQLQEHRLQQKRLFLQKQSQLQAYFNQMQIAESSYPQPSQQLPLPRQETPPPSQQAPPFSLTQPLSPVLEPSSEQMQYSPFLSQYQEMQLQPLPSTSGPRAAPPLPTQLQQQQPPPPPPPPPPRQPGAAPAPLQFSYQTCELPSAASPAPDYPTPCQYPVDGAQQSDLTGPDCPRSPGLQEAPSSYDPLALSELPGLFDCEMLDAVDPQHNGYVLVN
As to the kind of experiment: ADP-Glo kinase assay, SIK2. Summed up:
as §1

The target of the next assay is T3, SIK3 (Homo sapiens, UniProt Q9Y2K2).
T3 construct: purchased SignalChem S12-11G-100
T3 sequence (Q9Y2K2 59-365 limits assumed): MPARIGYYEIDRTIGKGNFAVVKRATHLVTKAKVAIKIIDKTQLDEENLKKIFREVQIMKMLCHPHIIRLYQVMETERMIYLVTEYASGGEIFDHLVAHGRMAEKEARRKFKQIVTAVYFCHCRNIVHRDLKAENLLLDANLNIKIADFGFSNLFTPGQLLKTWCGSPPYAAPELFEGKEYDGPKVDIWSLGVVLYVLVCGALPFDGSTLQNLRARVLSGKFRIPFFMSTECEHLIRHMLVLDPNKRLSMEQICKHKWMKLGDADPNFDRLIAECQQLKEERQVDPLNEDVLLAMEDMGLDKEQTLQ
As to the kind of experiment: ADP-Glo kinase assay, SIK3. The procedure, abridged: as §1

Where only a bound is given, the exact number is not on record here.

For orientation: IC50 means the concentration needed to halve the response being measured. A higher IC50 goes with weaker potency in that assay.

T1 sequence (P57059 whole entry): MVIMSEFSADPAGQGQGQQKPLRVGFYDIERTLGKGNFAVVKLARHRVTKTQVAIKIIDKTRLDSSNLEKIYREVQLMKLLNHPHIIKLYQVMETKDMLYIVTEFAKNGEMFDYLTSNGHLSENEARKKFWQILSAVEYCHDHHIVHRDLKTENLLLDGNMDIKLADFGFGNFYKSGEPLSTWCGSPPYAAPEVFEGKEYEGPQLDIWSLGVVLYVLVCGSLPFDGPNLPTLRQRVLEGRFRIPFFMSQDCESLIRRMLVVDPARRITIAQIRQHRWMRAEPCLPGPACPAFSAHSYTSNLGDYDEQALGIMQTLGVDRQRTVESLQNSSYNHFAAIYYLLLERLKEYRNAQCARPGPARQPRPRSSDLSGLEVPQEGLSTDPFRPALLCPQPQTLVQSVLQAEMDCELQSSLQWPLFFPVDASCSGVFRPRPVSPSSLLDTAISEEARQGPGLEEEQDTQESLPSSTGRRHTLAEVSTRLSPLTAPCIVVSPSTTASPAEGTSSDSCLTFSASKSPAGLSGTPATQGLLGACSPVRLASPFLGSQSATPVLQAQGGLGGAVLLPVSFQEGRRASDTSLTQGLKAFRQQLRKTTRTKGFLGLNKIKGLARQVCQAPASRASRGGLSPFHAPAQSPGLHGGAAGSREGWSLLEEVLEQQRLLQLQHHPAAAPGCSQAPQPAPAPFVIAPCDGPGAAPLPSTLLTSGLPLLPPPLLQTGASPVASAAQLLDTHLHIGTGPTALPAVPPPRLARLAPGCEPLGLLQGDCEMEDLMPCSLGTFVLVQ

For `COc1cc(-c2cnc3cc(C(C)(C)C#N)ccn23)cc(OC(F)F)c1C(=O)NC1COC1` [Cpd 43, 4-[7-(1-cyano-1-methyl-ethyl)imidazo[1,2-a]pyridin-3-yl]-2-(difluoromethoxy)-6-methoxy-N-(oxetan-3-yl)benzamide], the IC50 is greater than 500 nM at SIK1, greater than 500 nM at SIK2 and 10 to 100 nM at SIK3.
For `COc1cc(-c2cnc3cc(C(C)(C)C#N)ccn23)cc(OC(F)F)c1C(=O)NC(C1CC1)C(F)(F)F` (stereo not drawn) [Cpd 100, 4-[7-(1-cyano-1-methyl-ethyl)imidazo[1,2-a]pyridin-3-yl]-N-(1-cyclopropyl-2,2,2-trifluoro-ethyl)-2-(difluoromethoxy)-6-methoxy-benzamide], the IC50 against SIK1, against SIK2 and against SIK3 was greater than 500 nM throughout.
With `COc1cc(-c2cnc3cc(C(C)(C)c4noc(C)n4)ccn23)cc(OC(F)F)c1C(=O)NC1CC1` [Cpd 61, N-cyclopropyl-2-(difluoromethoxy)-6-methoxy-4-[7-[1-methyl-1-(5-methyl-1,2,4-oxadiazol-3-yl)ethyl]imidazo[1,2-a]pyridin-3-yl]benzamide], the IC50 on SIK1 is greater than 500 nM; at SIK2 it was greater than 500 nM; against SIK3, 10 to 100 nM.
As for `COc1cc(-c2cnc3cc(C(C)(C)OC)ncn23)cc(OC(F)F)c1C(=O)NC1CC1` [Cpd 118, N-cyclopropyl-2-(difluoromethoxy)-6-methoxy-4-[7-(1-methoxy-1-methyl-ethyl)imidazo[1,2-c]pyrimidin-3-yl]benzamide], the IC50 against SIK1 is greater than 500 nM; on SIK2, greater than 500 nM; against SIK3, 10 to 100 nM.
Take `COc1cc(-c2cnc3cc(C4CCCN4C(C)C)ccn23)cc(OC(F)F)c1C(=O)NC1CC1` (stereo not drawn) [Cpd 197, N-cyclopropyl-2-(difluoromethoxy)-4-[7-(1-isopropylpyrrolidin-2-yl)imidazo[1,2-a]pyridin-3-yl]-6-methoxy-benzamide]: the figures for the IC50 against SIK1, on SIK2 and at SIK3 were 100 to 500 nM, 10 to 100 nM and 10 to 100 nM, respectively.
With `COc1cc(-c2cnc3cc(C4CCC4)ccn23)cc(OC(F)F)c1C(=O)NC1CC1` [Cpd 159, 4-(7-cyclobutylimidazo[1,2-a]pyridin-3-yl)-N-cyclopropyl-2-(difluoromethoxy)-6-methoxy-benzamide], the results for the IC50 on SIK1, at SIK2 and on SIK3 were 10 to 100 nM, 10 to 100 nM and 0.01 to 10 nM, respectively.
Regarding `COc1cc(-c2cnc3cc(C4CCOCC4)ccn23)cc(OC(F)F)c1C(=O)NC1CC1` [Cpd 108, N-cyclopropyl-2-(difluoromethoxy)-6-methoxy-4-(7-tetrahydropyran-4-ylimidazo[1,2-a]pyridin-3-yl)benzamide], the IC50 against SIK1 fell in the range of 100 to 500 nM; at SIK2, 10 to 100 nM; against SIK3 it was 0.01 to 10 nM.
For `COc1cc(-c2cnc3cc(C(C)(C)C#N)ccn23)cc(OC(F)F)c1C(=O)N1CCN(C)CC1` [Cpd 49, 2-[3-[3-(difluoromethoxy)-5-methoxy-4-(4-methylpiperazine-1-carbonyl)phenyl]imidazo[1,2-a]pyridin-7-yl]-2-methyl-propanenitrile], in that order: greater than 500 nM, greater than 500 nM and greater than 500 nM.
For `COc1cc(-c2cnc3cc(C(C)(C)C#N)ccn23)cc(OC(F)F)c1C(=O)NC1CCOC1` (stereo not drawn) [Cpd 86, 4-[7-(1-cyano-1-methyl-ethyl)imidazo[1,2-a]pyridin-3-yl]-2-(difluoromethoxy)-6-methoxy-N-tetrahydrofuran-3-yl-benzamide], in that order: greater than 500 nM, greater than 500 nM and 10 to 100 nM.
The corresponding values for `COc1cc(-c2cnc3cc(C(C)N4CC5(COC5)C4)ccn23)cc(OC(F)F)c1C(=O)NC1CC1` (stereo not drawn) [Cpd 152, N-cyclopropyl-2-(difluoromethoxy)-6-methoxy-4-[7-[1-(2-oxa-6-azaspiro[3.3]heptan-6-yl)ethyl]imidazo[1,2-a]pyridin-3-yl]benzamide] are greater than 500 nM, greater than 500 nM and 10 to 100 nM.
`COc1cc(-c2cnc3cc(C(C)(C)C#N)ccn23)cc(OC(F)F)c1C(=O)NC1(C(C)C)CC1` [Cpd 80, 4-[7-(1-cyano-1-methyl-ethyl)imidazo[1,2-a]pyridin-3-yl]-2-(difluoromethoxy)-N-(1-isopropylcyclopropyl)-6-methoxy-benzamide]: the IC50 at SIK1, against SIK2 and at SIK3 was greater than 500 nM throughout.
For `COc1cc(-c2cnc3cc(C4CCCN4C(=O)OC(C)(C)C)ccn23)cc(OC(F)F)c1C(=O)NC1CC1` (stereo not drawn) [Cpd 180, tert-butyl 2-[3-[4-(cyclopropylcarbamoyl)-3-(difluoromethoxy)-5-methoxy-phenyl]imidazo[1,2-a]pyridin-7-yl]pyrrolidine-1-carboxylate], the IC50 on SIK1 fell in the range of 100 to 500 nM; against SIK2, 100 to 500 nM; against SIK3 it was 10 to 100 nM.
Consider `COc1cc(-c2cnc3cc(C(C)(C)O)ccn23)cc(OC)c1C(=O)NCC(F)(F)F` [Cpd 57, 4-[7-(1-hydroxy-1-methyl-ethyl)imidazo[1,2-a]pyridin-3-yl]-2,6-dimethoxy-N-(2,2,2-trifluoroethyl)benzamide], for which the IC50 is greater than 500 nM at SIK1, greater than 500 nM against SIK2 and 10 to 100 nM against SIK3.
As for `COc1cc(-c2cnc3cc(C(C)(C)C#N)ccn23)cc(OC(F)F)c1C(=O)NCCN1CCOCC1` [Cpd 42, 4-[7-(1-cyano-1-methyl-ethyl)imidazo[1,2-a]pyridin-3-yl]-2-(difluoromethoxy)-6-methoxy-N-(2-morpholinoethyl)benzamide], the IC50 against SIK1 was greater than 500 nM; at SIK2, greater than 500 nM; at SIK3, 100 to 500 nM.
Turning to `CCC1(NC(=O)c2c(OC)cc(-c3cnc4cc(C(C)(C)C#N)ccn34)cc2OC(F)F)CC1` [Cpd 83, 4-[7-(1-cyano-1-methyl-ethyl)imidazo[1,2-a]pyridin-3-yl]-2-(difluoromethoxy)-N-(1-ethylcyclopropyl)-6-methoxy-benzamide], the IC50 at SIK1, against SIK2 and on SIK3 was greater than 500 nM throughout.
With `COc1cc(-c2cnc3cc(C(C)(C)C#N)ccn23)cc(OC(F)F)c1C(=O)NCC1CCC1` [Cpd 90, 4-[7-(1-cyano-1-methyl-ethyl)imidazo[1,2-a]pyridin-3-yl]-N-(cyclobutylmethyl)-2-(difluoromethoxy)-6-methoxy-benzamide], the half-maximal inhibitory concentration (IC50) is greater than 500 nM against SIK1, greater than 500 nM on SIK2 and 10 to 100 nM at SIK3.
Take `COc1cc(-c2cnn3cc(C4CCOCC4)ccc23)cc(OC(F)F)c1C(=O)NC1CC1` [Cpd 112, N-cyclopropyl-2-(difluoromethoxy)-6-methoxy-4-(6-tetrahydropyran-4-ylpyrazolo[1,5-a]pyridin-3-yl)benzamide]: the half-maximal inhibitory concentration (IC50) was greater than 500 nM against SIK1, 10 to 100 nM against SIK2 and 0.01 to 10 nM at SIK3.
As for `C#CC1(O)CN(C(=O)c2c(OC)cc(-c3cnc4cc(C(C)(C)C#N)ccn34)cc2OC(F)F)C1` [Cpd 89, 2-[3-[3-(difluoromethoxy)-4-(3-ethynyl-3-hydroxy-azetidine-1-carbonyl)-5-methoxy-phenyl]imidazo[1,2-a]pyridin-7-yl]-2-methyl-propanenitrile], the figures for the IC50 against SIK1, at SIK2 and against SIK3 were greater than 500 nM, greater than 500 nM and 10 to 100 nM, respectively.
For `COc1cc(-c2cnc3cc(C4(CO)CC4)ccn23)cc(OC(F)F)c1C(=O)NC1CC1` [Cpd 115, N-cyclopropyl-2-(difluoromethoxy)-4-[7-[1-(hydroxymethyl)cyclopropyl]imidazo[1,2-a]pyridin-3-yl]-6-methoxy-benzamide], the IC50 against SIK1 is 100 to 500 nM; against SIK2, 10 to 100 nM; against SIK3 it was 0.01 to 10 nM.
For `COc1cc(-c2cnc3cc(C4(C(=O)N5CC(O)C5)CC4)ccn23)cc(OC(F)F)c1C(=O)NC1CC1` [Cpd 144, N-cyclopropyl-2-(difluoromethoxy)-4-[7-[1-(3-hydroxyazetidine-1-carbonyl)cyclopropyl]imidazo[1,2-a]pyridin-3-yl]-6-methoxy-benzamide], in that order: greater than 500 nM, greater than 500 nM and 10 to 100 nM.
Turning to `COc1cc(-c2cnc3cc(C4(C#N)COC4)ccn23)cnc1C(=O)NCC(F)(F)F` [Cpd 125, 5-[7-(3-cyanooxetan-3-yl)imidazo[1,2-a]pyridin-3-yl]-3-methoxy-N-(2,2,2-trifluoroethyl)pyridine-2-carboxamide], the IC50 at SIK1, against SIK2 and on SIK3 was greater than 500 nM in each case.
For `CCN(CC)C(C)c1ccn2c(-c3cc(OC)c(C(=O)NC4CC4)c(OC(F)F)c3)cnc2c1` (stereo not drawn) [Cpd 148, N-cyclopropyl-4-[7-[1-(diethylamino)ethyl]imidazo[1,2-a]pyridin-3-yl]-2-(difluoromethoxy)-6-methoxy-benzamide], the figures for the IC50 against SIK1, at SIK2 and at SIK3 were greater than 500 nM, greater than 500 nM and 10 to 100 nM, respectively.
As to `COc1cc(-c2cnc3cc(C(C)(C)C#N)ccn23)cc(OC(F)F)c1C(=O)N1CC2(CN(C)C2)C1` [Cpd 99, 2-[3-[3-(difluoromethoxy)-5-methoxy-4-(6-methyl-2,6-diazaspiro[3.3]heptane-2-carbonyl)phenyl]imidazo[1,2-a]pyridin-7-yl]-2-methyl-propanenitrile], the IC50 against SIK1 is greater than 500 nM; on SIK2, greater than 500 nM; on SIK3 it was 100 to 500 nM.
With `COc1cc(-c2cnc3cc(C(C)(C)O)ncn23)cc(OC(F)F)c1C(=O)NC1CC1` [Cpd 119, N-cyclopropyl-2-(difluoromethoxy)-4-[7-(1-hydroxy-1-methyl-ethyl)imidazo[1,2-c]pyrimidin-3-yl]-6-methoxy-benzamide], the IC50 against SIK1 was greater than 500 nM; at SIK2, greater than 500 nM; at SIK3, 100 to 500 nM.

For the origin of these results see patent US12391679B2, “Benzamide-substituted bicyclic imidazo- and pyrazolo-fused -pyridine, -pyrimide, and -pyridazine compounds for treatment of inflammatory diseases” (ONCO3R Therapeutics BV, priority 2019, dated 2025).
